What was measured:
Format in all cases: in vivo
[1] = tested on: winter barley (Hordeum vulgare); experiment: Test B postemergence plant response; details: for Barley plant response rating (0 to 100 scale): 62 g ai/ha, postemergence, 0 is no effect, 100 is complete control; for Plant response rating, Barley: Postemergence
In short: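 Plants at the 1- to 4-leaf stage (2 to 18 cm tall), grown in pots of peat moss/vermiculite medium with wetting agent and starter nutrients, received postemergence applications of test chemicals. After 13 to 15 days in a greenhouse, injury was rated visually against untreated controls on a 0 (no effect) to 100 (complete control) scale.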

[2] = tested on: barnyardgrass (Echinochloa crus-galli); experiment: Test A pre-/postemergence plant response
In short: (§1)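 Visually rated 0–100 injury (100 = complete control) versus untreated plants, ~10 days in greenhouse. Application pre- (soil spray, loam/sand) and postemergence (2–10 cm, 1–2 leaf stage), same timepoint.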

[3] = tested on: pigweed (Amaranthus retroflexus); experiment: Test A pre-/postemergence plant response
In short: as §1

corn (Zea mays) = experiment: Test A pre-/postemergence plant response
In short: as §1

[4] = tested on: large crabgrass (Digitaria sanguinalis); experiment: Test A pre-/postemergence plant response
In short: as §1

[5] = tested on: wheat (Triticum aestivum); experiment: Test A pre-/postemergence plant response
In short: as §1

[6] = tested on: giant foxtail (Setaria faberii); experiment: Test A pre-/postemergence plant response
In short: as §1

[7] = tested on: morningglory (Ipomoea spp.); experiment: Test A pre-/postemergence plant response
In short: as §1

[8] = tested on: velvetleaf (Abutilon theophrasti); experiment: Test A pre-/postemergence plant response
In short: as §1

[9] = tested on: barnyardgrass (Echinochloa crus-galli); experiment: Test B flooded paddy test; details: for Plant response rating, Flood, Barnyardgrass: 250 g ai/ha, flooded paddy test, visual rating on 0 to 100 scale (0 no effect, 100 complete control) after 13 to 15 days; for Plant response rating, Barnyardgrass: Flood (flooded paddy test), 13 to 15 days; for Barnyardgrass plant response rating: Flood, 31 g ai/ha, scale 0 to 100 (0 no effect, 100 complete control)
In short: (§2)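 Post-flood paddy application: compounds are introduced into water 3 cm deep over the soil, reaching plants at the 2-leaf stage. The water level is maintained, and after 13–15 days under greenhouse conditions, response is judged by eye relative to controls, where 100 means complete control.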

[10] = tested on: umbrella sedge (Cyperus difformis); experiment: Test B flooded paddy test; details: for Plant response rating, Flood, Sedge, Umbrella: 250 g ai/ha, flooded paddy test, visual rating on 0 to 100 scale (0 no effect, 100 complete control) after 13 to 15 days; for Plant response rating, Sedge, Umbrella: Flood (flooded paddy test), 13 to 15 days; for Sedge, Umbrella plant response rating: Flood, 31 g ai/ha, scale 0 to 100 (0 no effect, 100 complete control)
In short: as §2

[11] = tested on: ducksalad (Heteranthera limosa); experiment: Test B flooded paddy test; details: for Plant response rating, Flood, Ducksalad: 250 g ai/ha, flooded paddy test, visual rating on 0 to 100 scale (0 no effect, 100 complete control) after 13 to 15 days; for Plant response rating, Ducksalad: Flood (flooded paddy test), 13 to 15 days; for Ducksalad plant response rating: Flood, 31 g ai/ha, scale 0 to 100 (0 no effect, 100 complete control)
In short: as §2

rice (Oryza sativa) = experiment: Test B flooded paddy test; details: for Plant response rating, Flood, Rice: 250 g ai/ha, flooded paddy test, visual rating on 0 to 100 scale (0 no effect, 100 complete control) after 13 to 15 days; for Plant response rating, Rice: Flood (flooded paddy test), 13 to 15 days; for Rice plant response rating: Flood, 31 g ai/ha, scale 0 to 100 (0 no effect, 100 complete control)
In short: as §2

[12] = 31 g ai/ha, 0 to 100 scale (0 no effect, 100 complete control)
[13] = 125 g ai/ha, scale 0 to 100 (0 no effect, 100 complete control)
[14] = 250 g ai/ha, scale 0 to 100 (0 no effect, 100 complete control), 13 to 15 days
[15] = Postemergence, 125 g ai/ha, 0 to 100 scale where 0 is no effect and 100 is complete control
[16] = Postemergence, 500 g ai/ha, 0 to 100 scale, 0 = no effect, 100 = complete control, approx. ten days
[17] = Preemergence, 125 g ai/ha, 0 to 100 scale, 0 = no effect, 100 = complete control
[18] = Preemergence, 500 g ai/ha, visual injury, 0 to 100 scale (0 no effect, 100 complete control), approx. ten days
[19] = Preemergence, 500 g ai/ha, 0 to 100 scale, 0 = no effect, 100 = complete control
[20] = 62 g ai/ha, scale of 0 to 100 where 0 is no effect and 100 is complete control
[21] = 125 g ai/ha, scale 0 to 100, 0 is no effect, 100 is complete control

CCCn1c(-c2cc(F)cc(F)c2)ncc(C(=O)C2=C(O)CCCC2=O)c1=O [Compound 152]
Barley plant response rating (0 to 100 scale) ([1]; 13 to 15 days): 45 | Plant response rating, Barley [1, 12]: 10 | Plant response rating, Barley [1, 13]: 85 | Plant response rating, Barley [1, 14]: 90 | Plant response rating, Barnyardgrass [2, 15]: 100 | Plant response rating, Barnyardgrass [2, 16]: 100 | Plant response rating, Barnyardgrass [2, 17]: 50 | Plant response rating, Barnyardgrass [2, 18]: 100 | Plant response rating, Pigweed [3, 15]: 100 | Plant response rating, Pigweed [3, 16]: 100 | Plant response rating, Pigweed [3, 17]: 100 | Plant response rating, Pigweed [3, 18]: 100 | Plant response rating, Corn (corn (Zea mays); [15]): 0 | Plant response rating, Corn (corn (Zea mays); [16]): 50 | Plant response rating, Corn (corn (Zea mays); [17]): 0 | Plant response rating, Corn (corn (Zea mays); [18]): 30 | Plant response rating, Crabgrass, Large [4, 15]: 90 | Plant response rating, Crabgrass, Large [4, 16]: 100 | Plant response rating, Crabgrass, Large [4, 17]: 90 | Plant response rating, Crabgrass, Large [4, 18]: 100 | Plant response rating, Wheat [5, 15]: 20 | Plant response rating, Wheat [5, 16]: 70 | Plant response rating, Wheat [5, 17]: 20 | Plant response rating, Wheat [5, 19]: 50 | Plant response rating, Foxtail, Giant [6, 15]: 80 | Plant response rating, Foxtail, Giant [6, 16]: 100 | Plant response rating, Foxtail, Giant [6, 17]: 60 | Plant response rating, Foxtail, Giant [6, 18]: 90 | Plant response rating, Morningglory [7, 15]: 100 | Plant response rating, Morningglory [7, 16]: 100 | Plant response rating, Morningglory [7, 17]: 60 | Plant response rating, Morningglory [7, 18]: 80 | Plant response rating, Velvetleaf [8, 15]: 100 | Plant response rating, Velvetleaf [8, 16]: 100 | Plant response rating, Velvetleaf [8, 17]: 60 | Plant response rating, Velvetleaf [8, 19]: 100 | Plant response rating, Flood, Barnyardgrass [9]: 75 | Plant response rating, Barnyardgrass [9, 20]: 25 | Plant response rating, Barnyardgrass [9, 21]: 50 | Barnyardgrass plant response rating [9]: 15 | Plant response rating, Flood, Sedge, Umbrella [10]: 100 | Plant response rating, Sedge, Umbrella [10, 20]: 0 | Plant response rating, Sedge, Umbrella [10, 21]: 85 | Sedge, Umbrella plant response rating [10]: 0 | Plant response rating, Flood, Ducksalad [11]: 100 | Plant response rating, Ducksalad [11, 20]: 90 | Plant response rating, Ducksalad [11, 21]: 100 | Ducksalad plant response rating [11]: 0 | Plant response rating, Flood, Rice (rice (Oryza sativa)): 60 | Plant response rating, Rice (rice (Oryza sativa); [20]): 20 | Plant response rating, Rice (rice (Oryza sativa); [21]): 30 | Rice plant response rating (rice (Oryza sativa)): 20

COCCn1c(-c2cccc(Cl)c2)ncc(C(=O)C2=C(O)CCCC2=O)c1=O [Compound 147]
Barley plant response rating (0 to 100 scale) ([1]; 13 to 15 days): 0 | Plant response rating, Barley [1, 12]: 0 | Plant response rating, Barley [1, 13]: 0 | Plant response rating, Barley [1, 14]: 0 | Plant response rating, Barnyardgrass [2, 15]: 80 | Plant response rating, Barnyardgrass [2, 16]: 90 | Plant response rating, Barnyardgrass [2, 17]: 70 | Plant response rating, Barnyardgrass [2, 18]: 100 | Plant response rating, Pigweed [3, 15]: 100 | Plant response rating, Pigweed [3, 16]: 100 | Plant response rating, Pigweed [3, 17]: 90 | Plant response rating, Pigweed [3, 18]: 100 | Plant response rating, Corn (corn (Zea mays); [15]): 20 | Plant response rating, Corn (corn (Zea mays); [16]): 30 | Plant response rating, Corn (corn (Zea mays); [17]): 0 | Plant response rating, Corn (corn (Zea mays); [18]): 0 | Plant response rating, Crabgrass, Large [4, 15]: 80 | Plant response rating, Crabgrass, Large [4, 16]: 90 | Plant response rating, Crabgrass, Large [4, 17]: 100 | Plant response rating, Crabgrass, Large [4, 18]: 100 | Plant response rating, Wheat [5, 15]: 20 | Plant response rating, Wheat [5, 16]: 60 | Plant response rating, Wheat [5, 17]: 0 | Plant response rating, Wheat [5, 19]: 20 | Plant response rating, Foxtail, Giant [6, 15]: 70 | Plant response rating, Foxtail, Giant [6, 16]: 80 | Plant response rating, Foxtail, Giant [6, 17]: 70 | Plant response rating, Foxtail, Giant [6, 18]: 90 | Plant response rating, Morningglory [7, 15]: 100 | Plant response rating, Morningglory [7, 16]: 100 | Plant response rating, Morningglory [7, 17]: 40 | Plant response rating, Morningglory [7, 18]: 90 | Plant response rating, Velvetleaf [8, 15]: 100 | Plant response rating, Velvetleaf [8, 16]: 100 | Plant response rating, Velvetleaf [8, 17]: 80 | Plant response rating, Velvetleaf [8, 19]: 100 | Plant response rating, Flood, Barnyardgrass [9]: 75 | Plant response rating, Barnyardgrass [9, 20]: 10 | Plant response rating, Barnyardgrass [9, 21]: 45 | Barnyardgrass plant response rating [9]: 0 | Plant response rating, Flood, Sedge, Umbrella [10]: 80 | Plant response rating, Sedge, Umbrella [10, 20]: 40 | Plant response rating, Sedge, Umbrella [10, 21]: 40 | Sedge, Umbrella plant response rating [10]: 0 | Plant response rating, Flood, Ducksalad [11]: 100 | Plant response rating, Ducksalad [11, 20]: 60 | Plant response rating, Ducksalad [11, 21]: 80 | Ducksalad plant response rating [11]: 60 | Plant response rating, Flood, Rice (rice (Oryza sativa)): 15 | Plant response rating, Rice (rice (Oryza sativa); [20]): 0 | Plant response rating, Rice (rice (Oryza sativa); [21]): 10 | Rice plant response rating (rice (Oryza sativa)): 0

— patent US8952024B2, “Herbicidal pyrimidone derivatives” (E I du Pont de Nemours and Company, priority 2009, dated 2015)
